Measured values from patent US9970848B2, “Method for evaluating state of horny layer and method for evaluating horny layer improvement effect of cosmetic preparation” (Shiseido Company, Ltd., priority 2013, dated 2018).

System: stratum corneum sheets obtained from the forearm flexor region
Assay: Screening of candidate cosmetics for ameliorating effect on the stratum corneum (fluorescein staining after wetting and drying)
Conditions: 3% aqueous solution, 1 h immersion, dried 2 hours at 0% humidity, room temperature; 0.2 w/v % uranin staining; 12 visual fields averaged
Protocol: Stratum corneum sheets obtained from the forearm flexor region using stratum corneum release tape were affixed to glass slides, and each affixed stratum corneum sheet was immersed for one hour in water (two sheets) as a control and in a 3% erythritol aqueous solution (ER) and a 3% AQUAINPOOL 1407 aqueous solution (AQ), as candidate cosmetics. Next, one of the water-wetted stratum corneum sheets was dried at 0% humidity, room temperature, while the other was dried for 2 hours at 90% humidity, room temperature. The stratum corneum sheets wetted with ER and AQ were dried for 2 hours at 0% humidity, room temperature. […] The taken image was corrected for distortion and digitized using analysis software, and the fluorescent brightness was calculated.

OC[C@@H](O)[C@@H](O)CO [ER, erythritol]
fluorescent brightness compared with the water-wetted stratum corneum sheet (dried at 0% humidity): about the same
